The source of these data is patent US11147816B2, “Composition for inducing differentiation and protection of neural stem cells and method for inducing neuro-regeneration using the same composition” (GENUV Inc., priority 2016, dated 2021).

Series [1] has as its system mouse adult neural stem cells. As to conditions: trametinib 10 nM, 100 nM, memantine 5 μM, 10 μM, 4 days. The method, then:
NSC were isolated from the subventricular zone of week 8 mouse brain, treated with 20 ng/ml human basic fibroblast growth factor (bFGF) and 20 ng/ml human epidermal growth factor (EGF) in an IPM medium, and cultured as a suspension in 24-well plates for 7 days.
Two days before the isolation of single cells, 6-well plates were prepared by treating the wells with 10 μg/ml poly-L-ornithine solution and incubating overnight at room temperature for coating. The next day, poly-L-ornithine solution was removed and the plates were washed 3 times with sterilized triple distilled water. […] The culture solution used is N2 culture medium (supplemented with 20 ng/ml bFGF and 20 ng/ml EGF). Right before seeding, the coating solution was suctioned out, and the single cells were uniformly seeded into the culture plate before the plate dried up. Cells were allowed to attach to the plates for about one minute, and after checking that cells were sufficiently attached, an additional 1.5 ml of culture medium (N2 culture medium with 20 ng/ml bFGF and 20 ng/ml EGF) was added to the cells and cultured in a 37° C. incubator for 24 hours.
Wells not treated with amyloid-beta were left to use as negative controls.
Gibco's (Waltham, Mass.) human Aβ (1-42) was purchased to use for the amyloid-beta (Aβ), and the following process was followed to create oligomers. First, amyloid-beta was dissolved in 100% HFIP (1,1,1,3,3,3-hexafluoro-2-propanol) (Sigma, cat#.105228) to obtain a concentration of 1 mg/ml and vortexed at room temperature for 1 hour. Then, it was dried for 10 minutes in a speed Vac, after which DMSO (Sigma, cat#.D2650) was added to bring the concentration to 5 mM and then lightly vortexed at room temperature for 10 minutes. […] The solution was incubated at 4° C. for 24 hours and then added into the cultured cells.
The NCSs were cultured with the daily addition of EGF, bFGF, amyloid-beta, and test materials for 4 days.

For series [2], the system named is mouse adult neural stem cells. The series can be described thus: qRT-PCR of relative mRNA expression of neuronal markers in mouse adult NSC (Example 4-2). The class given is cell-based. As to conditions: 10 nM for 2 days.
In series [3] the test system is 5XFAD mouse. The series can be described thus: Tuj1 expression in the somatosensory cortex (Example 9-1). As to conditions: 0.1 mg/kg orally daily for 28 days, vs vehicle. It counts as in vivo. The method, then:
Anti-Tuj1 antibodies were added to the brain tissue slides of 5XFAD mouse in Example 8 and incubated at 4° C. for 1 day, after which the tissue slides were fluorescently stained by incubating with Fluorescein isothiocyanate (FITC)-secondary antibodies (Invitrogen, cat#. A21121) at room temperature for 1 hour. In FIG. 15, the areas marked with arrows (→) indicate cells stained with Tuj1 and the areas marked with arrowheads (▾) indicate plaques formed by amyloid-beta aggregation. Plaques were present in both vehicle-treated and trametinib-treated groups.

Series [4] has as its system 5XFAD mouse. Put plainly: Cerebellar Purkinje cell Tuj1 and calbindin staining (Example 11). The class given is in vivo. The following applies: particularly 0.1 mg/kg, orally daily for 28 days, vs vehicle. From the text: Two slides for Tuj1 staining and three for calbindin staining are shown for each treatment group.
The test system of series [5] is 5XFAD mouse. Put plainly: BrdU staining in the hippocampal dentate gyrus (Example 9-3). As to conditions: orally daily for 28 days, vs vehicle.
Procedure: For the BrdU staining to be performed later, 50 mg/kg of BrdU (Sigma, cat#. B5002) was added to the daily dose for the last 5 days. The mouse was then anesthetized and perfused with PBS for the extraction of the brain. Of the brains extracted from 3 mice of each group, half of the brain tissue (hemispheres) was immediately stored in the deep freezer for western blotting and ELISA experiments to be performed later. The other half of the hemispheres plus another 3 extracted mice brains per group were placed in 10% formalin solution at 4° C. for 1 day, which was then followed with the proceeding steps to allow good penetration of paraffin into the brain tissue. The brain tissues were immersed sequentially in 70%, 80%, 95%, 100% alcohol for 1 hour each for dehydration, then immersed in xylene 3 times for 1 hour each for clearing, and embedded in paraffin by placing in liquid paraffin 2 times for 1 hour each. After these procedures, the paraffin-embedded brain tissue (paraffin block) was cut into 5 μm sections, mounted on slides, and stored at room temperature. Prior to immunohistochemical staining, the tissues on the slides were rehydrated by sequentially immersing in xylene, 100%, 90%, 80%, 70%, 50% alcohol,and then water for 5 minutes each. […]

On to `CC(=O)Nc1cccc(-n2c(=O)n(C3CC3)c(=O)c3c(Nc4ccc(I)cc4F)n(C)c(=O)c(C)c32)c1` [trametinib, N-(3-{3-cyclopropyl-5-[(2-fluoro-4-iodophenyl)amino]-6,8-dimethyl-2,4,7-trioxo-3,4,6,7-tetrahydropyrido[4,3-d]pyrimidin-1(2H)-yl}phenyl)acetamide], for which the “cell toxicity / cell death (morphology)” value in series [1] (AS703026 10 μM) is “did not elicit cell toxicity”. Besides, the “differentiation of NSC into neurons (morphology)” value in series [1] (with or without 10 μM oligomeric Aβ(1-42)) was “readily induced the differentiation of NSC into neurons”. For the same compound, in series [2], the “mRNA expression of cholinergic neuron marker ChAT” value is on record as “increased the expression”, the “mRNA expression of dopaminergic neuron marker TH” value is on record as “increased the expression” and the “mRNA expression of neuronal marker Tuj1” value was “increased the expression”. Further, the “number of cells stained with Tuj1, somatosensory cortex” value in the series with 5XFAD mouse [3] is on record as “significant increase in the number of cells stained with Tuj1”. In addition, in the series with 5XFAD mouse [4], the “Purkinje cell axon structure” value is “increased axon arborization or at least with preserved axon structure”. For the same compound, the “number of BrdU stained cells in the dentate gyrus” value with 5XFAD mouse [5] is reported as “an increase in the number of cells stained with BrdU”.
